Measured values published in US11807644B2 (PMV Pharmaceuticals, Inc., priority 2020, dated 2023).

Biological target: T1, recombinant His-tag Y220C p53 DBD protein (Homo sapiens, UniProt P04637, Y220C)
T1 construct: recombinant His-tag Y220C p53 DBD protein (amino acids #˜94-312)
Assay: In vitro DNA binding activity assay (TR-FRET): binding of His-tag Y220C p53 DBD to biotin-labeled consensus DNA
Type: biochemical
Conditions: SC150 = concentration to increase DNA binding by […], His-tag Y220C p53 DBD, biotin-labeled consensus DNA

**Q.** Which “Y220C SC150 (μM)” value does the source give for `CC(C)N1CC[C@@H](Nc2cccc3c2cc(-c2noc(CNC(=O)c4cn(C(C)(C)C)cn4)n2)n3CC(F)(F)F)[C@@H](F)C1` [Compound 318B, 1-tert-butyl-N-{[3-(4-{[(3S,4R)-3-fluoro-1-(propan-2-yl)piperidin-4-yl]amino}-1-(2,2,2-trifluoroethyl)-1H-indol-2-yl)-1,2,4-oxadiazol-5-yl]methyl}-1H-imidazole-4-carboxamide] here?
**A.** Its value is “* (* = 0 μM ≤ SC150 < 0.1 μM)”.

**Q.** `COCC(C)n1ccc(C(=O)NCc2nc(-c3cc4c(N[C@@H]5CCN(C(C)(C)C)C[C@@H]5F)cccc4n3CC(F)(F)F)no2)c1` (mixture of isomers) [Compound 357B, rac-N-{[3-(4-{[(3R,4S)-1-tert-butyl-3-fluoropiperidin-4-yl]amino}-1-(2,2,2-trifluoroethyl)-1H-indol-2-yl)-1,2,4-oxadiazol-5-yl]methyl}-1-(1-methoxypropan-2-yl)-1H-pyrrole-3-carboxamide] was tested. Which “Y220C SC150 (μM)” value did it give?
**A.** The value was “* (* = 0 μM ≤ SC150 < 0.1 μM)”.

**Q.** For `COc1cccc(C(=O)NCc2nnc(-c3cc4c(NC5CCN(C)CC5)cccc4n3CC(F)(F)F)s2)c1` [Compound 64B, 3-methoxy-N-[(5-{4-[(1-methylpiperidin-4-yl)amino]-1-(2,2,2-trifluoroethyl)-1H-indol-2-yl}-1,3,4-thiadiazol-2-yl)methyl]benzamide], which “Y220C SC150 (μM)” value is on record?
**A.** Its value is “* (* = 0 μM ≤ SC150 < 0.1 μM)”.

**Q.** With `CN1CCC(Nc2cccc3c2cc(-c2nnc(CNc4ccccc4)o2)n3CC(F)(F)F)CC1` [Compound 108B, N-(1-methylpiperidin-4-yl)-2-{5-[(phenylamino)methyl]-1,3,4-oxadiazol-2-yl}-1-(2,2,2-trifluoroethyl)-1H-indol-4-amine] as the compound, how does the “Y220C SC150 (μM)” value read?
**A.** The value was “** (** = 0.1 μM ≤ SC150 < 0.5 μM)”.

**Q.** Which “Y220C SC150 (μM)” value does the source give for `CCn1cccc1C(=O)NCc1nc(-c2cc3c(N[C@@H]4CCN(C)C[C@@H]4F)cccc3n2CC(F)(F)F)no1` [Compound 534B, 1-ethyl-N-{[3-(4-{[(3S,4R)-3-fluoro-1-methylpiperidin-4-yl]amino}-1-(2,2,2-trifluoroethyl)-1H-indol-2-yl)-1,2,4-oxadiazol-5-yl]methyl}-1H-pyrrole-2-carboxamide] here?
**A.** Its value is “* (* = 0 μM ≤ SC150 < 0.1 μM)”.

**Q.** With `CN1CC[C@@H](Nc2cccc3c2cc(-c2noc(CNC(=O)[C@@H]4C[C@H]4c4ccccc4F)n2)n3CC(F)(F)F)[C@@H](F)C1` [Compound 224B, (1R,2R)-N-{[3-(4-{[(3S,4R)-3-fluoro-1-methylpiperidin-4-yl]amino}-1-(2,2,2-trifluoroethyl)-1H-indol-2-yl)-1,2,4-oxadiazol-5-yl]methyl}-2-(2-fluorophenyl)cyclopropane-1-carboxamide] as the compound, how does the “Y220C SC150 (μM)” value read?
**A.** Its value is “* (* = 0 μM ≤ SC150 < 0.1 μM)”.

**Q.** With `CO[C@H]1CCC[C@@H]1n1ccc(C(=O)NCc2nc(-c3cc4c(N[C@@H]5CCN(C)C[C@@H]5F)cccc4n3CC(F)(F)F)no2)c1` (relative stereo) [Compound 355B] as the compound, how does the “Y220C SC150 (μM)” value read?
**A.** Its value is “* (* = 0 μM ≤ SC150 < 0.1 μM)”.

**Q.** With `COCC1(n2ccc(C(=O)NCc3nc(-c4cc5c(N[C@H]6CCN(C)C[C@H]6C)cccc5n4CC(F)(F)F)no3)c2)CC1` [Compound 505B, N-{[3-(4-{[(3R,4S)-1,3-dimethylpiperidin-4-yl]amino}-1-(2,2,2-trifluoroethyl)-1H-indol-2-yl)-1,2,4-oxadiazol-5-yl]methyl}-1-[1-(methoxymethyl)cyclopropyl]-1H-pyrrole-3-carboxamide] as the compound, how does the “Y220C SC150 (μM)” value read?
**A.** Its value is “* (* = 0 μM ≤ SC150 < 0.1 μM)”.

**Q.** How did the “Y220C SC150 (μM)” value turn out when `CN1CCC(n2cc(C(=O)NCc3nc(-c4cc5c(N[C@@H]6CCN(C)C[C@@H]6F)cccc5n4CC(F)(F)F)no3)cn2)CC1` [Compound 350B, N-{[3-(4-{1[(3S,4R)-3-fluoro-1-methylpiperidin-4-yl]amino}-1-(2,2,2-trifluoroethyl)-1H-indol-2-yl)-1,2,4-oxadiazol-5-yl]methyl}-1-(1-methylpiperidin-4-yl)-1H-pyrazole-4-carboxamide] was run?
**A.** Its value is “* (* = 0 μM ≤ SC150 < 0.1 μM)”.

**Q.** How did the “Y220C SC150 (μM)” value turn out when `CC1CN(c2nc(C(=O)NCc3nc(-c4cc5c(N[C@@H]6CCN(C)C[C@@H]6F)cccc5n4CC(F)(F)F)no3)cs2)C[C@H](C)O1` (stereo in doubt) [Compound 517B, 2-[(2S,6S)-2,6-dimethylmorpholin-4-yl]-N-{[3-(4-{[(3S,4R)-3-fluoro-1-methylpiperidin-4-yl]amino}-1-(2,2,2-trifluoroethyl)-1H-indol-2-yl)-1,2,4-oxadiazol-5-yl]methyl}-1,3-thiazole-4-carboxamide] was run?
**A.** Its value is “* (* = 0 μM ≤ SC150 < 0.1 μM)”.

**Q.** With `CN1CC[C@@H](Nc2cccc3c2cc(-c2noc(CNC(=O)c4cnn(C5(C)CCOCC5)c4)n2)n3CC(F)(F)F)[C@@H](F)C1` [Compound 404B, N-{[3-(4-{[(3S,4R)-3-fluoro-1-methylpiperidin-4-yl]amino}-1-(2,2,2-trifluoroethyl)-1H-indol-2-yl)-1,2,4-oxadiazol-5-yl]methyl}-1-(4-methyloxan-4-yl)-1H-pyrazole-4-carboxamide] as the compound, how does the “Y220C SC150 (μM)” value read?
**A.** Its value is “* (* = 0 μM ≤ SC150 < 0.1 μM)”.

**Q.** How did the “Y220C SC150 (μM)” value turn out when `CN1CC[C@@H](Nc2cccc3c2cc(-c2noc(CNC(=O)c4cn(-c5ccccc5)cn4)n2)n3CC(F)(F)F)[C@@H](F)C1` [Compound 197B, N-{[3-(4-{[(3S,4R)-3-fluoro-1-methylpiperidin-4-yl]amino}-1-(2,2,2-trifluoroethyl)-1H-indol-2-yl)-1,2,4-oxadiazol-5-yl]methyl}-1-phenyl-1H-imidazole-4-carboxamide] was run?
**A.** The value was “* (* = 0 μM ≤ SC150 < 0.1 μM)”.

**Q.** Which “Y220C SC150 (μM)” value does the source give for `CN1CC[C@@H](Nc2cccc3c2cc(-c2noc(CNC(=O)c4cnn(C5COC5)c4)n2)n3CC(F)(F)F)[C@@H](F)C1` [Compound 372B, N-{[3-(4-{[(3S,4R)-3-fluoro-1-methylpiperidin-4-yl]amino}-1-(2,2,2-trifluoroethyl)-1H-indol-2-yl)-1,2,4-oxadiazol-5-yl]methyl}-1-(oxetan-3-yl)-1H-pyrazole-4-carboxamide] here?
**A.** The value was “* (* = 0 μM ≤ SC150 < 0.1 μM)”.

**Q.** How did the “Y220C SC150 (μM)” value turn out when `CN1CC[C@@H](Nc2cccc3c2cc(-c2noc(CNC(=O)c4ccc5ccn(C)c5c4)n2)n3CC(F)(F)F)[C@@H](F)C1` [Compound 254B, N-{[3-(4-{[(3S,4R)-3-fluoro-1-methylpiperidin-4-yl]amino}-1-(2,2,2-trifluoroethyl)-1H-indol-2-yl)-1,2,4-oxadiazol-5-yl]methyl}-1-methyl-1H-indole-6-carboxamide] was run?
**A.** Its value is “* (* = 0 μM ≤ SC150 < 0.1 μM)”.

**Q.** Which “Y220C SC150 (μM)” value does the source give for `CCN1CC[C@@H](Nc2cccc3c2cc(-c2noc(CNC(=O)c4cnn(C(C)(C)C)c4)n2)n3CC(F)(F)F)[C@@H](F)C1` [Compound 304B, 1-tert-butyl-N-{[3-(4-{[(3S,4R)-1-ethyl-3-fluoropiperidin-4-yl]amino}-1-(2,2,2-trifluoroethyl)-1H-indol-2-yl)-1,2,4-oxadiazol-5-yl]methyl}-1H-pyrazole-4-carboxamide] here?
**A.** The value was “* (* = 0 μM ≤ SC150 < 0.1 μM)”.

**Q.** For `CN1CC[C@@H](Nc2cccc3c2cc(-c2noc(CNC(=O)c4cnc(C(C)(C)C)o4)n2)n3CC(F)(F)F)[C@@H](F)C1` [Compound 443B, 2-tert-butyl-N-{[3-(4-{[(3S,4R)-3-fluoro-1-methylpiperidin-4-yl]amino}-1-(2,2,2-trifluoroethyl)-1H-indol-2-yl)-1,2,4-oxadiazol-5-yl]methyl}-1,3-oxazole-5-carboxamide], which “Y220C SC150 (μM)” value is on record?
**A.** The value was “* (* = 0 μM ≤ SC150 < 0.1 μM)”.

**Q.** `COc1cc(S(C)(=O)=O)ccc1NCc1nnc(-c2cc3c(N[C@H]4CCN(C)C[C@H]4F)cccc3n2CC(F)(F)F)s1` (racemic) [Compound 27B, (+/−)-N-[(3R,4S)-3-fluoro-1-methylpiperidin-4-yl]-2-(5-{[(4-methanesulfonyl-2-methoxyphenyl)amino]methyl}-1,3,4-thiadiazol-2-yl)-1-(2,2,2-trifluoroethyl)-1H-indol-4-amine] was tested. Which “Y220C SC150 (μM)” value did it give?
**A.** Its value is “** (** = 0.1 μM ≤ SC150 < 0.5 μM)”.

**Q.** For `CN1CC[C@@H](Nc2cccc3c2cc(-c2noc(CNc4ccn(C(C)(C)C)n4)n2)n3CC(F)(F)F)[C@@H](F)C1` [Compound 390B, 2-(5-{[(1-tert-butyl-1H-pyrazol-3-yl)amino]methyl}-1,2,4-oxadiazol-3-yl)-N-[(3S,4R)-3-fluoro-1-methylpiperidin-4-yl]-1-(2,2,2-trifluoroethyl)-1H-indol-4-amine], which “Y220C SC150 (μM)” value is on record?
**A.** Its value is “* (* = 0 μM ≤ SC150 < 0.1 μM)”.

**Q.** How did the “Y220C SC150 (μM)” value turn out when `CC[C@@H]1C[C@H]1C(=O)NCc1nc(-c2cc3c(N[C@@H]4CCN(C)C[C@@H]4F)cccc3n2CC(F)(F)F)no1` [Compound 269B, (1R,2R)-2-ethyl-N-{[3-(4-{[(3S,4R)-3-fluoro-1-methylpiperidin-4-yl]amino}-1-(2,2,2-trifluoroethyl)-1H-indol-2-yl)-1,2,4-oxadiazol-5-yl]methyl}cyclopropane-1-carboxamide] was run?
**A.** Its value is “* (* = 0 μM ≤ SC150 < 0.1 μM)”.

**Q.** Which “Y220C SC150 (μM)” value does the source give for `COC[C@@H]1CCCN1c1cc(C(=O)NCc2nc(-c3cc4c(N[C@@H]5CCN(C)C[C@@H]5F)cccc4n3CC(F)(F)F)no2)cs1` [Compound 537B, N-{[3-(4-{[(3S,4R)-3-fluoro-1-methylpiperidin-4-yl]amino}-1-(2,2,2-trifluoroethyl)-1H-indol-2-yl)-1,2,4-oxadiazol-5-yl]methyl}-5-[(2S)-2-(methoxymethyl)pyrrolidin-1-yl]thiophene-3-carboxamide] here?
**A.** The value was “* (* = 0 μM ≤ SC150 < 0.1 μM)”.

Same assay, conditions: concentration to increase DNA binding by […], incubated at either 27° C. or 29° C. for 60 min

**Q.** With `CC(Nc1ccc(S(C)(=O)=O)cc1)c1ccc(-c2cc3c(NC4CCN(C)CC4)cccc3n2CC(F)(F)F)cc1` (stereo not shown) [Compound 41A, 2-(4-{1-[(4-methanesulfonylphenyl)amino]ethyl}phenyl)-N-(1-methylpiperidin-4-yl)-1-(2,2,2-trifluoroethyl)-1H-indol-4-amine] as the compound, how does the “SC150 (μM)” value read?
**A.** The value was “++ (++ = 2 μM ≤ SC150 < 5 μM)”.

**Q.** With `CS(=O)(=O)c1ccc(NCc2ccc(-c3cc4c(NC5CCS(=O)(=O)CC5)cccc4n3CC(F)(F)F)cc2)cc1` [Compound 8A, 4-{[2-(4-{[(4-methanesulfonylphenyl)amino]methyl}phenyl)-1-(2,2,2-trifluoroethyl)-1H-indol-4-yl]amino}-1λ^6-thiane-, 1-dione] as the compound, how does the “SC150 (μM)” value read?
**A.** The value was “+ (+ = 0 μM ≤ SC150 < 2 μM)”.
